Results: US4518611A, “2-Furylbutyrolactone modulation of the immune system in mammals” (priority 1983, dated 1985)
“And” between values parts separate entries of the source, which are not always exact repeats. Equal values may be shown once. “Also recorded” adds a separate entry of the source. Read-outs that look alike come from different tables or passages of the source.

Tests used:
spleen lymphocytes = test: Lymphocyte stimulation assay after in vivo treatment, C57BL/6 mice; conditions: for effect on Con-A response (in words) / effect on PHA response (in words) / effect on mitogen response (in words): i.p.; for effect on mitogen response (in words): PHA and Con-A
Description: (§1) The purpose of this assay is to challenge lymphocytes in microcultures with one or more polyclonal mitogens at concentrations that will induce mitogenesis within 72 hours of stimulation.
(§2) In the mouse model, spleens are removed from different strains of mice and the spleen cells are teased free and suspended in RPMI-1640 tissue culture medium at a concentration of usually […]. These cells are dispensed at a concentration of 5.0×10^5 cells per microculture well in a 96 well flat bottom 96 well tissue culture plate. All testing of the compounds of this invention or mitogens are done in replicates of 10. The cells are then treated with PHA, Con-A, specific antigens, or buffer only. If in vitro testing is done, varying concentrations of the compounds of this invention or buffer only are added to the cells as well. After treatment with the mitogens and/or compounds of this invention, the cells are incubated for 72 hours. The response of these cells to mitogens and/or the compounds of this invention is assessed using ^14 C-thymidine labeling on the fourth day at a concentration of 0.01 μCi/well. The labeled cells are harvested using a lymphocyte harvestor and placed onto fibrous paper discs. A scintillation cocktail is added to vials containing the discs and the results are obtained using a LKB-liquid scintillation counter (Model 1216/Rackbeta II). The data is expressed as a ratio of the cpm of the mitogen stimulated group to the control (nonmitogen) treated group=lymphocyte stimulation index (LSI).
(§3) The lymphocyte stimulation assay may be performed directly on spleen cells obtained from various strains of mice not treated with the compounds of this invention or on lymphocytes obtained from human […]. […] Alternatively, the mice may be treated in vivo with the compounds of this invention by intraperitoneal multi-dose schedules, followed by sacrifice and harvesting spleen lymphocytes. These cells are then tested for their response to polyclonal mitogens or specific antigens used to immunize the mice. In this system however, no additional compound is added to the in vitro lymphocyte stimulation assay system.
Two strains of mice, C57BL/6 and BDF1 are treated for seven days with i.p. administration of either 25, 50, 100, 200, or 400 mg/kg of Cpd. 1 or just buffer. This is followed on the eighth day by a lymphocyte stimulation assay.
A comparison is made of the lymphocyte response of C57BL/6 mice treated 4 days with i.p. administration of either 50, 100, 200, 400 or 800 mg/kg of Cpd. 1, 50, 100, 200, 400 or 800 mg/kg of ascorbic acid (AA), or just buffer. This is followed on the fifth day by a lymphocyte stimulation assay.
Two strains of mice, C57BL/6 and BALB/c, are treated 4 days with i.p. administration of either 50, 100, 200, or 400 mg/kg of Cpd. 1, or just buffer. This is followed on the fifth day by a lymphocyte stimulation assay.
C57BL/6 mice were treated with four daily i.p. doses of either 50, 100, 200, or 400 mg/kg of Cpd. 1 or just buffer. On the fifth day a lymphocyte stimulation assay was performed.
Mice of the C57BL/6 strain were tested with i.p. administration of either 100, 200, 400 or 600 mg/kg of Cpd. 1 or just buffer. This was followed by removal of spleens and treatment of lymphocytes therein with mitogens PHA and Con-A.
The compound of Example 2, Cpd. 2, was tested in vivo by using C57BL/6 mice and treating them with […] or just buffer for four consecutive days by the i.p. route. On the fifth day a lymphocyte stimulation assay was performed.

human lymphocytes = test: In vitro lymphocyte stimulation assay, human lymphocytes; type: cell-based
Description: as §1, §2, §3
Lymphocytes isolated from 5 human volunteers are treated in vitro with PHA and Con-A and either 0.1, 1, 10, 50, or 100 μg/well of Cpd. 1, 0.1, 1, 10, 50, or 100 μg/well of AA, or buffer.

L5178Y tumor cells = conditions: for No. Survivors: 100 mg/kg
Description: Ten days later the resultant tumor nodule, about 1 cm in size, is surgically excised. If the excision was successful, no subcutaneous tumors develop at the site of implantation. […] These mice are considered to be in the tumor dormant state.
The effect of Cpd. 1 on the establishment of the L5178Y tumor dormant state is studied by treating forty DBA/2 mice with Cpd. 1 after the mice have undergone the TDS inducing procedure. […] 1 at 100 mg/kg and the remaining twenty mice receive buffer only. A partial peritoneal lavage is performed twenty-five days after the last dose of Cpd. 1 and the peritoneal exudate fluid is plated out for determination of tumor cell numbers (tumor cell quantitative assay). Survival time is recorded out to 90 days after challenge with the viable L5178Y tumor cells. The percent mortality is calculated for each group.
The effect of Cpd. 1 on the establishment of the L5178Y tumor dormant state was studied by treating forty DBA/2 mice with Cpd. 1 after the mice had undergone the TDS inducing procedure. Two days after the mice were challenged with i.p. administration of 50,000 viable L5178Y tumor cells, twenty of these mice received seven consecutive days of i.p. treatment with Cpd. 1 at 100 mg/kg and the remaining twenty mice received buffer only. A partial peritoneal lavage was performed twenty-five days after the last dose of Cpd. 1 and the peritoneal exudate fluid was plated out for determination of tumor cell numbers (tumor cell quantitative assay). Survival time was recorded out to 114 days after challenge with the viable L5178Y tumor cells. The percent mortality was calculated for each group.

[1] = 100 mg/kg i.p., five day administration
[2] = 200 mg/kg i.p., five day administration
[3] = 400 mg/kg i.p., five day administration
[4] = 600 mg/kg i.p., five day administration
[5] = No. tumor cells >100,000, 100 mg/kg i.p., 7 days

Molecule: Cc1ccc(C2(O)C(=O)OC3C(O)COC32O)o1.Cc1ccc(C2(O)C(=O)OC3C(O)COC32O)o1.O=C1CCC(=O)O1 (stereo not shown) [Cpd. 1, 2-furylbutyrolactone:succinic anhydride]
- Lymphocyte Stimulation Index, PHA (spleen lymphocytes; 50 mg/kg i.p., 4 days): 13.6 and 17.0
- Lymphocyte Stimulation Index, Con-A (spleen lymphocytes; 50 mg/kg i.p., 7 days): 26.0
- Lymphocyte Stimulation Index, Control (no mitogen) (spleen lymphocytes; 50 mg/kg i.p., 7 days): 1.0
- Lymphocyte Stimulation Index, Con-A (spleen lymphocytes; 100 mg/kg i.p., 7 days): 40.0
- Lymphocyte Stimulation Index, Control (no mitogen) (spleen lymphocytes; 100 mg/kg i.p., 7 days): 1.3
- Lymphocyte Stimulation Index, PHA (spleen lymphocytes; 100 mg/kg i.p., 7 days): 17.7
- Lymphocyte Stimulation Index, Con-A (spleen lymphocytes; [1]): 43.9
- Lymphocyte Stimulation Index, Control (no mitogen) (spleen lymphocytes; [1]): .80
- Lymphocyte Stimulation Index, PHA (spleen lymphocytes; [1]): 51.1
- Lymphocyte Stimulation Index, PHA (spleen lymphocytes; 200 mg/kg i.p., 4 days): 42.8 and 25.2 and 23.2
- Lymphocyte Stimulation Index, Con-A (spleen lymphocytes; 200 mg/kg i.p., 7 days): 34.0
- Lymphocyte Stimulation Index, Control (no mitogen) (spleen lymphocytes; 200 mg/kg i.p., 7 days): 1.0
- Lymphocyte Stimulation Index, PHA (spleen lymphocytes; 200 mg/kg i.p., 7 days): 21.3
- Lymphocyte Stimulation Index, Con-A (spleen lymphocytes; [2]): 36.6
- Lymphocyte Stimulation Index, Control (no mitogen) (spleen lymphocytes; [2]): .62
- Lymphocyte Stimulation Index, PHA (spleen lymphocytes; [2]): 48.2
- Lymphocyte Stimulation Index, Con-A (spleen lymphocytes; 400 mg/kg i.p., 4 days): 40.0 and 30.9 and 26.4
- Lymphocyte Stimulation Index, Con-A (spleen lymphocytes; 400 mg/kg i.p., 7 days): 20.7
- Lymphocyte Stimulation Index, Control (no mitogen) (spleen lymphocytes; 400 mg/kg i.p., 7 days): 1.0
- Lymphocyte Stimulation Index, PHA (spleen lymphocytes; 400 mg/kg i.p., 7 days): 3.2
- Lymphocyte Stimulation Index, Con-A (spleen lymphocytes; [3]): 42.4
- Lymphocyte Stimulation Index, Control (no mitogen) (spleen lymphocytes; [3]): .49
- Lymphocyte Stimulation Index, PHA (spleen lymphocytes; [3]): 44.9
- Lymphocyte Stimulation Index, Con-A (spleen lymphocytes; [4]): 26.5
- Lymphocyte Stimulation Index, Control (no mitogen) (spleen lymphocytes; [4]): 1.7
- Lymphocyte Stimulation Index, PHA (spleen lymphocytes; [4]): 17.6
- evidence of toxicity (spleen lymphocytes; 600 mg/kg, five day administration): no evidence of toxicity
- Lymphocyte Stimulation Index, Con-A (spleen lymphocytes; 800 mg/kg i.p., 4 days): .612
- Lymphocyte Stimulation Index, Control (no mitogen) (spleen lymphocytes; 800 mg/kg i.p., 4 days): .31
- Lymphocyte Stimulation Index, PHA (spleen lymphocytes; 800 mg/kg i.p., 4 days): .408
- effect on Con-A response (in words) (spleen lymphocytes; 4 days): doses ranging from 50 to 200 mg/kg have a significant stimulatory effect; also recorded: doses ranging from 400 to 800 mg/kg have a significant anti-proliferative effect
- effect on PHA response (in words) (spleen lymphocytes; 4 days): doses of 100 and 200 mg/kg of Cpd. 1 tend to stimulate lymphocyte DNA synthesis; also recorded: Doses ranging from 400 to 800 suppress DNA synthesis of spleen lymphocytes; also recorded: a decrease in the response to PHA at the 400 mg/kg dose when compared to the response at the 200 mg/kg dose
- effect on mitogen response (in words) (spleen lymphocytes; 7 days): strong suppression of the PHA response in the C57BL/6 mice; also recorded: a suppression of the Con-A response in C57BL/6 mice when compared to the 200 mg/kg dose; also recorded: at a dose of 200 mg/kg in C57BL/6 mice; also recorded: in the C57BL/6 strain, it is increased at doses of 50, 100 and 200 mg/kg
- effect on mitogen response (in words) (spleen lymphocytes; five day administration): Doses ranging from 100 to 400 mg/kg of Cpd. 1 caused significant stimulation of both the Con-A and PHA treated lymphocytes; also recorded: The high dose, 600 mg/kg, caused less stimulation than the 100 to 400 mg/kg doses and gave levels comparable to controls
- effect on mitogen response (in words) (spleen lymphocytes; four daily doses): Stimulation of the response to polyclonal mitogens at doses of Cpd. 1 from 50-400 mg/kg with a maximum response achieved between doses of 100-200 mg/kg
- Lymphocyte Stimulation Index, Con-A (human lymphocytes; 0.1 μg/well): 38.06
- Lymphocyte Stimulation Index, PHA (human lymphocytes; 0.1 μg/well): 56.67
- Lymphocyte Stimulation Index, Con-A (human lymphocytes; 1.0 μg/well): 32.63
- Lymphocyte Stimulation Index, PHA (human lymphocytes; 1.0 μg/well): 48.60
- Lymphocyte Stimulation Index, Con-A (human lymphocytes; 10 μg/well): 23.82
- Lymphocyte Stimulation Index, PHA (human lymphocytes; 10 μg/well): 34.37
- Lymphocyte Stimulation Index, Con-A (human lymphocytes; 50 μg/well): 1.33
- Lymphocyte Stimulation Index, PHA (human lymphocytes; 50 μg/well): 0.40
- Lymphocyte Stimulation Index, Con-A (human lymphocytes; 100 μg/well): 0.44
- Lymphocyte Stimulation Index, PHA (human lymphocytes; 100 μg/well): 0.544
- effect on lymphocyte response (in words) (human lymphocytes; in vitro, PHA and Con-A): a high dose anti-proliferative effect, at doses of 100 and 50 μg/ml; also recorded: markedly increased lymphocyte response at very low doses of 1 and 0.1 μg/ml
- numbers of tumor cells recovered (in words) (L5178Y tumor cells; 100 mg/kg i.p., 7 days): significant reduction in the numbers of tumor cells recovered
- survival (in words) (L5178Y tumor cells; 100 mg/kg i.p., 7 days): significantly greater survival
- No. Survivors (L5178Y tumor cells; 90 days post-challenge): 10
- No. Survivors (L5178Y tumor cells; 114 days post-challenge): 19
- Frequency (mice), treated group (L5178Y tumor cells; No. tumor cells 1,000 to 100,000, 100 mg/kg i.p., 7 days): 7 and 4
- % of Total, treated group (L5178Y tumor cells; [5]): 6% and 4.3%
- Frequency (mice), treated group (L5178Y tumor cells; [5]): 1

Molecule: 2-furylbutyrolactone:succinimide [Cpd. 2]
- Lymphocyte Stimulation Index, Con-A (spleen lymphocytes; 50 mg/kg i.p., 4 days): 96.1
- Lymphocyte Stimulation Index, Control (no mitogen) (spleen lymphocytes; 50 mg/kg i.p., 4 days): .88
- Lymphocyte Stimulation Index, PHA (spleen lymphocytes; 50 mg/kg i.p., 4 days): 15.5
- Lymphocyte Stimulation Index, Con-A (spleen lymphocytes; 100 mg/kg i.p., 4 days): 105
- Lymphocyte Stimulation Index, Control (no mitogen) (spleen lymphocytes; 100 mg/kg i.p., 4 days): 1.5
- Lymphocyte Stimulation Index, PHA (spleen lymphocytes; 100 mg/kg i.p., 4 days): 15.4
- Lymphocyte Stimulation Index, Con-A (spleen lymphocytes; 200 mg/kg i.p., 4 days): 99.3
- Lymphocyte Stimulation Index, Control (no mitogen) (spleen lymphocytes; 200 mg/kg i.p., 4 days): .69
- Lymphocyte Stimulation Index, PHA (spleen lymphocytes; 200 mg/kg i.p., 4 days): 11.3
- Lymphocyte Stimulation Index, Con-A (spleen lymphocytes; 400 mg/kg i.p., 4 days): 109
- Lymphocyte Stimulation Index, Control (no mitogen) (spleen lymphocytes; 400 mg/kg i.p., 4 days): 1.3
- Lymphocyte Stimulation Index, PHA (spleen lymphocytes; 400 mg/kg i.p., 4 days): 12.9
- Lymphocyte Stimulation Index, Con-A (spleen lymphocytes; 600 mg/kg i.p., 4 days): 94.0
- Lymphocyte Stimulation Index, Control (no mitogen) (spleen lymphocytes; 600 mg/kg i.p., 4 days): 1.5
- Lymphocyte Stimulation Index, PHA (spleen lymphocytes; 600 mg/kg i.p., 4 days): 15.8
- effect on Con-A response (in words) (spleen lymphocytes; 4 days): only marginal stimulation of Con-A mitogenesis
- effect on PHA response (in words) (spleen lymphocytes; 4 days): no effect on PHA mitogenesis
